Read-outs that look alike come from different tables or passages of the source.
How the values were obtained:
Assay in all cases: KINOMEscan in vitro binding to 468 labeled protein kinases
protein kinases [1] = target: T1, protein kinases (Homo sapiens, UniProt O94804); conditions: LOK
T1 construct: purchased Discovery X company (USA), KINOMEscan screening platform
Experimental: (§1) Test Example 6 Determination of Binding Affinity of the Present Compounds on Protein Kinases In Vitro
(§2) KINOMEscan screening platform of Discovery X company (USA) was used to identify the binding targets of the present compounds to protein kinases. Compound 66 of the present invention was dissolved in DMSO (Sigma Aldrich) at concentrations of 1000 nM, 10 nM and 1 nM, and then was subjected to in vitro binding reaction with 468 labeled protein kinases. Two samples were taken in parallel for each assay sample.
(§3) The lower the percentage of the test compound to the solvent control, the stronger the binding affinity of the test compound to the protein kinase in vitro.

protein kinases [2] = target: T2, protein kinases (Homo sapiens, UniProt P00519); conditions: read-out: Test compound/solvent control (%); for remaining binding at 0.001 µM: 1 nM; for remaining binding at 0.01 µM: 10 nM; for remaining binding at 1 µM: 1000 nM
T2 construct: purchased Discovery X company (USA), KINOMEscan screening platform
Experimental: as §1, §2, §3

protein kinases [3] = target: T3, protein kinases (Homo sapiens, UniProt P00519, E255K); conditions: ABL1(E255K)-phosphorylated, read-out: Test compound/solvent control (%)
T3 construct: purchased Discovery X company (USA), KINOMEscan screening platform
Experimental: as §1, §2, §3

protein kinases [4] = target: T4, protein kinases (Homo sapiens, UniProt P00519, Q252H); conditions: read-out: Test compound/solvent control (%); for remaining binding at 0.001 µM: 1 nM; for remaining binding at 0.01 µM: 10 nM; for remaining binding at 1 µM: 1000 nM
T4 construct: purchased Discovery X company (USA), KINOMEscan screening platform
Experimental: as §1, §2, §3

protein kinases [5] = target: T5, protein kinases (Homo sapiens, UniProt P00533, DEL746-750); conditions: EGFR(E746-A750de1)
T5 construct: purchased Discovery X company (USA), KINOMEscan screening platform
T5 sequence (P00533 with tags, fused parts or gaps DEL746-750): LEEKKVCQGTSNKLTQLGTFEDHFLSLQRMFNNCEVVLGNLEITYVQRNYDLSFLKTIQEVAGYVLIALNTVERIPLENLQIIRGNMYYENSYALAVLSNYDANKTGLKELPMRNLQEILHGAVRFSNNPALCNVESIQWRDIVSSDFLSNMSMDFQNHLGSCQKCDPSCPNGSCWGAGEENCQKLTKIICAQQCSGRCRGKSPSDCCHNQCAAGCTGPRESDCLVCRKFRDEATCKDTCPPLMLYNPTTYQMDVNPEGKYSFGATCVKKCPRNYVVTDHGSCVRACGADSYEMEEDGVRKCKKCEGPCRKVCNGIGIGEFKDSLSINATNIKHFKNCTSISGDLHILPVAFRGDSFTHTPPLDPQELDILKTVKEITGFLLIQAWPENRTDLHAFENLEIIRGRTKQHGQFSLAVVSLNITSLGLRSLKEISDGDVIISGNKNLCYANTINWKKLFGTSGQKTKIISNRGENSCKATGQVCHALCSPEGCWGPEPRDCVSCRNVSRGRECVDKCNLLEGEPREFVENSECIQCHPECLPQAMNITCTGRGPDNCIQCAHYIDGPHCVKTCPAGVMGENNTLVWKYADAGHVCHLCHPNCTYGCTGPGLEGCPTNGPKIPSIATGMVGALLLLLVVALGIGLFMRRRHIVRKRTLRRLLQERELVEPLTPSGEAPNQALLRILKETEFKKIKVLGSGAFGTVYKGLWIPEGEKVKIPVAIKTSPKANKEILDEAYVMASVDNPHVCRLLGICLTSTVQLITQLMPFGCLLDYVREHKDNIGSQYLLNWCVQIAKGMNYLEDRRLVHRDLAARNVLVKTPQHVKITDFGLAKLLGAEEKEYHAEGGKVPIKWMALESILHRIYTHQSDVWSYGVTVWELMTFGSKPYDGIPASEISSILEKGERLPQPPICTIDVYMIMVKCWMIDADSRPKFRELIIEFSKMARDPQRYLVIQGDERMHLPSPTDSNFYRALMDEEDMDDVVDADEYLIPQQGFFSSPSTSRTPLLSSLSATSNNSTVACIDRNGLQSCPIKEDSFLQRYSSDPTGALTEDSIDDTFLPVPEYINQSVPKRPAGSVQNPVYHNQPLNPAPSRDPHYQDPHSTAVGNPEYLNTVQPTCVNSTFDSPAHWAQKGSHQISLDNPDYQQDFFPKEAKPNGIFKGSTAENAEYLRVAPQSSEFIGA
Experimental: as §1, §2, §3

protein kinases [6] = target: T6, protein kinases (Homo sapiens, UniProt P00533, DEL752-759); conditions: EGFR(S752-1759del)
T6 construct: purchased Discovery X company (USA), KINOMEscan screening platform
T6 sequence (P00533 with tags, fused parts or gaps DEL752-759): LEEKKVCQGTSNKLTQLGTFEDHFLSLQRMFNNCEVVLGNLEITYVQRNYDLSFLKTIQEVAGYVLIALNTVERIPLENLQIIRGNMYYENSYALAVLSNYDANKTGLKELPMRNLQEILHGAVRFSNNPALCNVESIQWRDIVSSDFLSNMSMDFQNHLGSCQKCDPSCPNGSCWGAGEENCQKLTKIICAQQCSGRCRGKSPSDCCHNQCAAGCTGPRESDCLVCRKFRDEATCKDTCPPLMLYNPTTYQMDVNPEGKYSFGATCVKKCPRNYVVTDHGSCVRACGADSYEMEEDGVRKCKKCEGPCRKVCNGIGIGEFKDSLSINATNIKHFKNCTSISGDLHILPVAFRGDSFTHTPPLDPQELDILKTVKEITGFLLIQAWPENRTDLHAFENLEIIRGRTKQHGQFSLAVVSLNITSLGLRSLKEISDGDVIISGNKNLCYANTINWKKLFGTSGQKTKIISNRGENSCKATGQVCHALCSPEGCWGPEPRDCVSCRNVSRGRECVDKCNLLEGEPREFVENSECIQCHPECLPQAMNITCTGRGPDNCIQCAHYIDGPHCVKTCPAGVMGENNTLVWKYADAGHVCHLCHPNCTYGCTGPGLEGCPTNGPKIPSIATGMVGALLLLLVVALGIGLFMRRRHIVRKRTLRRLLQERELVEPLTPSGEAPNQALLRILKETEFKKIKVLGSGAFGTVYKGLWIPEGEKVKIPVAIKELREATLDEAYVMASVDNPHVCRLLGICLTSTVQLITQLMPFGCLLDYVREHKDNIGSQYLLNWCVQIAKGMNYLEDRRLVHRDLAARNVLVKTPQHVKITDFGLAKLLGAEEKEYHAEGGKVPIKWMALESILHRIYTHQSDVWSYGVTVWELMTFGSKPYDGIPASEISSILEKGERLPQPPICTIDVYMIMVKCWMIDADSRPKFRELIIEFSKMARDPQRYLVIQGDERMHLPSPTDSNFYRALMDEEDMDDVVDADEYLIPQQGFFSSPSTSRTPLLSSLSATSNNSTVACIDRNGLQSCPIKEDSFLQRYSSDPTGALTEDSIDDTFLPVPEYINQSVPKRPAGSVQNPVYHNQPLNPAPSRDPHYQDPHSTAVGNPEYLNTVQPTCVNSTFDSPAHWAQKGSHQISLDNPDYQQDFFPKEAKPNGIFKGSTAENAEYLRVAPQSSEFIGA
Experimental: as §1, §2, §3

protein kinases [7] = target: T7, protein kinases (Homo sapiens, UniProt P00533, G719C); conditions: EGFR(G719C)
T7 construct: purchased Discovery X company (USA), KINOMEscan screening platform
Experimental: as §1, §2, §3

protein kinases [8] = target: T8, protein kinases (Homo sapiens, UniProt P06239); conditions: LCK, read-out: Test compound/solvent control (%)
T8 construct: purchased Discovery X company (USA), KINOMEscan screening platform
T8 sequence (P06239 whole entry): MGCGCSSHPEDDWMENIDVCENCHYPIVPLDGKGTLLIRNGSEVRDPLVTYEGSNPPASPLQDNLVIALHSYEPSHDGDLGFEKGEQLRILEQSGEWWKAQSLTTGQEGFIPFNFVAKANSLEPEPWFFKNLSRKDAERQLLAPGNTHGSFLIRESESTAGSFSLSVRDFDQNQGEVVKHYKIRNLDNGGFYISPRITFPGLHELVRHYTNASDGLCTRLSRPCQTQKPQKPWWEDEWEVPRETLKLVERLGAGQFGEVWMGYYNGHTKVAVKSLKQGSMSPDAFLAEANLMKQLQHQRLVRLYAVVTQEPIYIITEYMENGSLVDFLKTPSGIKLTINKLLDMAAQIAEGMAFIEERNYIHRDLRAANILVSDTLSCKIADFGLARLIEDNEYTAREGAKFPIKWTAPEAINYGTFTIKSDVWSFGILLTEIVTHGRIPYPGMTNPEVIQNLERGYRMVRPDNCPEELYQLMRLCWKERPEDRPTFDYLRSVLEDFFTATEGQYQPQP
Experimental: as §1, §2, §3

protein kinases [9] = target: T9, protein kinases (Homo sapiens, UniProt P07949); conditions: RET, read-out: Test compound/solvent control (%)
T9 construct: purchased Discovery X company (USA), KINOMEscan screening platform
Experimental: as §1, §2, §3

protein kinases [10] = target: T10, protein kinases (Homo sapiens, UniProt P09619); conditions: PDGFRB, read-out: Test compound/solvent control (%)
T10 construct: purchased Discovery X company (USA), KINOMEscan screening platform
T10 sequence (P09619 33-1106): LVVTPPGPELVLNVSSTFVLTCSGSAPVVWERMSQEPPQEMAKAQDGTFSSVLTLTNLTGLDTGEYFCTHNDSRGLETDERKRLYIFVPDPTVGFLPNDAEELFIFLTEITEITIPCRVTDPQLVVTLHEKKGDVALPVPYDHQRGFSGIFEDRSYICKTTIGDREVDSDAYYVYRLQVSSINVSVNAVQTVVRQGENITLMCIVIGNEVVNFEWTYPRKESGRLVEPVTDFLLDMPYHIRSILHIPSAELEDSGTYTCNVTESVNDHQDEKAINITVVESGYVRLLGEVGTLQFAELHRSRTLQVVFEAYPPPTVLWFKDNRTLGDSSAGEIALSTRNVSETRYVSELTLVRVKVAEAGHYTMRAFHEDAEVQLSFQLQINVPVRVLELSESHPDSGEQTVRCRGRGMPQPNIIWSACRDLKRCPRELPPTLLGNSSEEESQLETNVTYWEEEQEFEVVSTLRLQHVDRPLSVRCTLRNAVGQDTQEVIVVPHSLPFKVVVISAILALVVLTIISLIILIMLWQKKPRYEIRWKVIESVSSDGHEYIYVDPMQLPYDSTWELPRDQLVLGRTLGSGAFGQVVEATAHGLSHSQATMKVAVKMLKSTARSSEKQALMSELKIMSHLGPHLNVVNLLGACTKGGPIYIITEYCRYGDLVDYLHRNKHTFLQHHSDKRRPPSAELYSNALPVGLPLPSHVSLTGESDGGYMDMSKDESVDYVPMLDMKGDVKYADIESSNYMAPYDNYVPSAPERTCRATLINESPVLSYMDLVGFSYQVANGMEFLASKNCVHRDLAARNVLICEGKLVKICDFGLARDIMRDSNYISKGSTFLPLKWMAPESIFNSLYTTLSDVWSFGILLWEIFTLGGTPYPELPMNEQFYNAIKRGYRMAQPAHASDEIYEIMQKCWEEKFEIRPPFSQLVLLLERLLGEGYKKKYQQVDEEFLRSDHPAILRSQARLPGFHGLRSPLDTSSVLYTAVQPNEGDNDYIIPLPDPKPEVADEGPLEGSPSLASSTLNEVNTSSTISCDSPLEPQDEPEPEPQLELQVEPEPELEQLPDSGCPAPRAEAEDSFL
Experimental: as §1, §2, §3

protein kinases [11] = target: T11, protein kinases (Homo sapiens, UniProt P10721, A829P); conditions: KIT(A829P), read-out: Test compound/solvent control (%)
T11 construct: purchased Discovery X company (USA), KINOMEscan screening platform
Experimental: as §1, §2, §3

protein kinases [12] = target: T12, protein kinases (Homo sapiens, UniProt P16234); conditions: PDGFRA, read-out: Test compound/solvent control (%)
T12 construct: purchased Discovery X company (USA), KINOMEscan screening platform
Experimental: as §1, §2, §3

protein kinases [13] = target: T13, protein kinases (Homo sapiens, UniProt P22607); conditions: FGFR3, read-out: Test compound/solvent control (%)
T13 construct: purchased Discovery X company (USA), KINOMEscan screening platform
Experimental: as §1, §2, §3

protein kinases [14] = target: T14, protein kinases (Homo sapiens, UniProt P36888, D835H); conditions: FLT3(D835H), read-out: Test compound/solvent control (%)
T14 construct: purchased Discovery X company (USA), KINOMEscan screening platform
T14 sequence (P36888 27-993 D835H): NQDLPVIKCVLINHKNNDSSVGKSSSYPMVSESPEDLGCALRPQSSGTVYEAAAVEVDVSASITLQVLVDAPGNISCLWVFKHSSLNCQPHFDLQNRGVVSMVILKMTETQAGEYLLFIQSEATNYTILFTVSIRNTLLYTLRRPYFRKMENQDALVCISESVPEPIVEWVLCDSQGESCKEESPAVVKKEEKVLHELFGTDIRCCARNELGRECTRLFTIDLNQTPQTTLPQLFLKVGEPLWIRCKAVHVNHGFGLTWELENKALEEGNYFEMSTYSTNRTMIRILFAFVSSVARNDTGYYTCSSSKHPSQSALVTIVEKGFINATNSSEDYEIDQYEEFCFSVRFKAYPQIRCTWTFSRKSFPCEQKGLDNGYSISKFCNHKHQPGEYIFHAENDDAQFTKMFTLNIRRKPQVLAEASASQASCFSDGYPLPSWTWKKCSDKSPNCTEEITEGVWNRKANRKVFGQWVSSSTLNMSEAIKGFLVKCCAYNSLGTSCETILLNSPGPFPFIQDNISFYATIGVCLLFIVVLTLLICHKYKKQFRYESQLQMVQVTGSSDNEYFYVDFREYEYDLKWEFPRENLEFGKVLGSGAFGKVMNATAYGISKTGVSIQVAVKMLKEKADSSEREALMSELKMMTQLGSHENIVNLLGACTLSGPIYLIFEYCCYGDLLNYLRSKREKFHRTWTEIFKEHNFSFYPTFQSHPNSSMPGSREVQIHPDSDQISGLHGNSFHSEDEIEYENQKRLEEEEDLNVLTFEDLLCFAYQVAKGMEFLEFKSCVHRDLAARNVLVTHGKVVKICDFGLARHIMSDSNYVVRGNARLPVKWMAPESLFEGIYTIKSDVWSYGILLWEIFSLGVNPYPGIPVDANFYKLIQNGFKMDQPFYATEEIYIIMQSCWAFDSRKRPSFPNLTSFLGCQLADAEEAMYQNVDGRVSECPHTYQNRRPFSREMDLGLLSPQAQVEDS
Experimental: as §1, §2, §3

T1 sequence (O94804 whole entry): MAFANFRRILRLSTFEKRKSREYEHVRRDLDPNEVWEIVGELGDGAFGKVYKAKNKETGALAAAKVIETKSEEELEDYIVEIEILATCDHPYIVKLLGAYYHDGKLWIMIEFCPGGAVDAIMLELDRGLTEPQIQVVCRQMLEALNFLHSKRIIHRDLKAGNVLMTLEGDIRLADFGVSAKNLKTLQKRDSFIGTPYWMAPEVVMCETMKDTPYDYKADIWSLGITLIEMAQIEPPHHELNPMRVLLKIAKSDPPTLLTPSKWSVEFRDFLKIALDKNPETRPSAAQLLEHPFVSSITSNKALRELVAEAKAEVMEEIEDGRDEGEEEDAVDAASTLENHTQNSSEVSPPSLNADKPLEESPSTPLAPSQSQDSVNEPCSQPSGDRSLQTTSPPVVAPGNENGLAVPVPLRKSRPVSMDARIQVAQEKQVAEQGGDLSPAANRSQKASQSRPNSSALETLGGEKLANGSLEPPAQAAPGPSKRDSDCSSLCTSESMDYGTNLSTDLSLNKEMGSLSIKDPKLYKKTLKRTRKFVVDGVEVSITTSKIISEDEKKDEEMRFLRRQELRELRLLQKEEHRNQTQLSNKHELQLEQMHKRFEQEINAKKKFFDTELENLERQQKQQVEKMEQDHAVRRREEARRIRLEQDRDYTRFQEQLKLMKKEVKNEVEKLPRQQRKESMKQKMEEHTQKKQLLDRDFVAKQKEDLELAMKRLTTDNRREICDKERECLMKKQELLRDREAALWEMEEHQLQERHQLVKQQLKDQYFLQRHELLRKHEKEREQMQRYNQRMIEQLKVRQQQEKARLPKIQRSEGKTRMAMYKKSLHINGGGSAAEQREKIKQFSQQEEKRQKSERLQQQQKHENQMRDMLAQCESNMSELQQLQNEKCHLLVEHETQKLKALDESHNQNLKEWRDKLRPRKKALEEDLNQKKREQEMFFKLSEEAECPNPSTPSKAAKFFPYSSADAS

Test compound/solvent control (%) (protein kinases [1]; 1 nM): 57%
Test compound/solvent control (%) (protein kinases [1]; 10 nM): 1.3%
Test compound/solvent control (%) (protein kinases [1]; 1000 nM): 0%
remaining binding at 0.001 µM (protein kinases [2]; ABL1-phosphorylated): 49%
remaining binding at 0.01 µM (protein kinases [2]; ABL1-phosphorylated): 9.9%
remaining binding at 1 µM (protein kinases [2]; ABL1-phosphorylated): 0.1%
remaining binding at 0.001 µM (protein kinases [2]; ABL1-unphosphorylated): 41%
remaining binding at 0.01 µM (protein kinases [2]; ABL1-unphosphorylated): 8.3%
remaining binding at 1 µM (protein kinases [2]; ABL1-unphosphorylated): 0%
remaining binding at 0.001 µM (protein kinases [3]; 1 nM): 50%
remaining binding at 0.01 µM (protein kinases [3]; 10 nM): 7.6%
remaining binding at 1 µM (protein kinases [3]; 1000 nM): 0.1%
remaining binding at 0.001 µM (protein kinases [4]; ABL1(Q252H)-phosphorylated): 71%
remaining binding at 0.01 µM (protein kinases [4]; ABL1(Q252H)-phosphorylated): 12%
remaining binding at 1 µM (protein kinases [4]; ABL1(Q252H)-phosphorylated): 0.15%
remaining binding at 0.001 µM (protein kinases [4]; ABL1(Q252H)-unphosphorylated): 48%
remaining binding at 0.01 µM (protein kinases [4]; ABL1(Q252H)-unphosphorylated): 7.8%
remaining binding at 1 µM (protein kinases [4]; ABL1(Q252H)-unphosphorylated): 0%
Test compound/solvent control (%) (protein kinases [5]; 1 nM): 60%
Test compound/solvent control (%) (protein kinases [5]; 10 nM): 18%
Test compound/solvent control (%) (protein kinases [5]; 1000 nM): 2.8%
Test compound/solvent control (%) (protein kinases [6]; 1 nM): 90%
Test compound/solvent control (%) (protein kinases [6]; 10 nM): 29%
Test compound/solvent control (%) (protein kinases [6]; 1000 nM): 0%
Test compound/solvent control (%) (protein kinases [7]; 1 nM): 83%
Test compound/solvent control (%) (protein kinases [7]; 10 nM): 30%
Test compound/solvent control (%) (protein kinases [7]; 1000 nM): 0.2%
remaining binding at 0.001 µM (protein kinases [8]; 1 nM): 33%
remaining binding at 0.01 µM (protein kinases [8]; 10 nM): 0.65%
remaining binding at 1 µM (protein kinases [8]; 1000 nM): 0.2%
remaining binding at 0.001 µM (protein kinases [9]; 1 nM): 85%
remaining binding at 0.01 µM (protein kinases [9]; 10 nM): 17%
remaining binding at 1 µM (protein kinases [9]; 1000 nM): 0%
remaining binding at 0.001 µM (protein kinases [10]; 1 nM): 81%
remaining binding at 0.01 µM (protein kinases [10]; 10 nM): 6.2%
remaining binding at 1 µM (protein kinases [10]; 1000 nM): 0%
remaining binding at 0.001 µM (protein kinases [11]; 1 nM): 84%
remaining binding at 0.01 µM (protein kinases [11]; 10 nM): 22%
remaining binding at 1 µM (protein kinases [11]; 1000 nM): 0%
remaining binding at 0.001 µM (protein kinases [12]; 1 nM): 88%
remaining binding at 0.01 µM (protein kinases [12]; 10 nM): 34%
remaining binding at 1 µM (protein kinases [12]; 1000 nM): 0.15%
remaining binding at 0.001 µM (protein kinases [13]; 1 nM): 100%
remaining binding at 0.01 µM (protein kinases [13]; 10 nM): 82%
remaining binding at 1 µM (protein kinases [13]; 1000 nM): 0.2%
remaining binding at 0.001 µM (protein kinases [14]; 1 nM): 79%
remaining binding at 0.01 µM (protein kinases [14]; 10 nM): 15%
remaining binding at 1 µM (protein kinases [14]; 1000 nM): 1.1%
Compound: COCCOc1cc2nccc(Oc3ccc(NC(=O)Nc4cc(C(C)(C)C)n[nH]4)c(Cl)c3)c2cc1NC(C)=O [Compound 66, N-[4-{4-[3-(5-tert-butyl-2H-pyrazol-3-yl)-ureido]-3-chloro-phenoxy}-7-(2-methoxy-ethoxy)-quinolin-6-yl]-acetamide]
